Assay results reported in article PMC4848466, “Insights into the activation mechanism of class I HDAC complexes by inositol phosphates” (Nature Communications, 2016).
Entries after “also recorded” stand apart in the source; their conditions may differ. Non-standard residues stand in square brackets, D forms with d. Residues, ends and D or L forms follow the SMILES beside them. *: point of attachment. Asu = N[C@@H](CCCCCC(=O)O)C(=O)O; NHOH = ON*

Key:
HDAC3:SMRT complex [1] = molecular target: T1, HDAC3:SMRT complex (Homo sapiens, UniProt O15379+Q9Y618); assay: Activation of HDAC3:SMRT deacetylase activity by inositol phosphates (BOC-Lys-AMC assay); format: biochemical; details: for HDAC activity as percentage of maximal Ins(1,4,5,6)P4 activity: compound tested at 200 μM; for HDAC3 activation relative to maximal Ins(1,4,5,6)P4-stimulated activity: titration / maximal activation
T1 construct: Full-length HDAC3, and residues 350–480 of SMRT were cloned into pcDNA3 vectors; residues 350–480 of SMRT were cloned into pcDNA3 vectors; FLAG tag with TEV protease cleavage site (cleaved yes); made in house; host or cells: HEK293F cells (co-transfection, pcDNA3)
Method: (§1) To understand the stereochemical basis underlying the activation of HDAC3 by inositol phosphates we investigated the ability of a range of inositol phosphates and derivatives to enhance the activity of HDAC3 in deacetylase assays. To achieve this we used an assay based on the complex of HDAC3 with an extended SMRT construct which is stable in the absence of inositol phosphate.
(§2) HDAC activity of the protein complex was measured using an HDAC assay with a BOC-Lys-AMC substrate. 50 nM HDAC3:SMRT or 50 nM HDAC1:MTA1 was incubated with 100 μM BOC-Lys-AMC substrate in a final volume of 50 μl buffer A (50 mM Tris pH 7.5, 50 mM NaCl, 5% Glycerol), in a black 96-well plate for 30 min at 37 °C.
(§3) To test the ability of inositol phosphates and derivatives to activate the complex, 50 nM HDAC3:SMRT (which had been stripped of its endogenous co-purified inositol phosphate) or 50 nM HDAC1:MTA1 was incubated with inositol phosphate or analogue for 30 min at 37 °C before the HDAC activity was measured. All measurements were performed in triplicate and data analysed using GraphPad Prism (version 6.0, GraphPad Software, Inc).

HDAC1:MTA1 [2] = molecular target: T2, HDAC1:MTA1 (Homo sapiens, UniProt Q13330+Q13547); assay: Inhibition of HDAC1:MTA1 by peptide-based inhibitor; format: biochemical
T2 construct: Full-length HDAC1 and residues 162–354 of MTA1 were cloned into pcDNA3 vectors; residues 162–354 of MTA1 were cloned into pcDNA3 vectors; FLAG tag with TEV protease cleavage site (cleaved yes); made in house; host or cells: HEK293F cells (co-transfection, pcDNA3)

HDAC3:SMRT [3] = molecular target: T3, HDAC3:SMRT (Homo sapiens, UniProt O15379+Q9Y618); assay: Fluorescence anisotropy direct binding of 2-FAM-Ins(1,3,4,5,6)P5; details: inhibitor bound at the active site
Method: When required, assays were performed in the presence of HDAC inhibitor (20 mM final concentration). Plates were mixed by shaking for 1 s, and measurements taken using a Victor X5 plate reader (Perkin Elmer) at room temperature with an excitation wavelength of 480 nm and an emission wavelength of 535 nm. Experiments were performed in triplicate and data were analysed using GraphPad Prism (version 6.0), Kd values were calculated by nonlinear curve fitting using a one-site binding (hyperbola) model (Y=Bmax*X/(Kd+X).
HDAC3:SMRT complex [4] = molecular target: T4, HDAC3:SMRT complex (Homo sapiens, UniProt O15379); assay: Activation of HDAC3:SMRT deacetylase activity by inositol phosphates (BOC-Lys-AMC assay); format: biochemical; details: BOC-Lys-AMC assay; one-site binding fit of HDAC activity vs inositol phosphate concentration; read-out: Kdapp (apparent Kd from activation titration)
T4 construct: Full-length HDAC3, and residues 350–480 of SMRT were cloned into pcDNA3 vectors; residues 350–480 of SMRT were cloned into pcDNA3 vectors; FLAG tag with TEV protease cleavage site (cleaved yes); made in house; host or cells: HEK293F cells (co-transfection, pcDNA3)
Method: as §1, §2, §3

HDAC1:MTA1 complex = molecular target: T5, HDAC1:MTA1 complex (Homo sapiens, UniProt Q13330+Q13547); assay: Activation of HDAC1:MTA1 deacetylase activity by inositol phosphates (BOC-Lys-AMC assay); format: biochemical; details: read-out: Kdapp (apparent Kd from activation titration)
T5 construct: Full-length HDAC1 and residues 162–354 of MTA1 were cloned into pcDNA3 vectors; residues 162–354 of MTA1 were cloned into pcDNA3 vectors; FLAG tag with TEV protease cleavage site (cleaved yes); made in house; host or cells: HEK293F cells (co-transfection, pcDNA3)
Method: as §2, §3

HDAC1:MTA1 [5] = molecular target: T2, HDAC1:MTA1; assay: Michaelis-Menten enzyme kinetics on Caliper EZ Reader with H4K16ac peptide; format: biochemical; details: H4 12–18K16ac peptide; in the presence of the inositol phosphate
Description: (§4) To explore further the differences between the two complexes we established a more physiological, real-time kinetic assay using substrates based on the tails of histones H4 and H3. The peptides tested were; H4 12–18(K16ac), H3 23–29(K27ac) and H3 6–12(K9ac). […] HDAC3:SMRT is most catalytically active against H3 23–29(K27ac) (Supplementary Fig. 7), whereas HDAC1:MTA1 is most catalytically active against H4 12–18(K16ac) (Fig. 4d). In both cases an approximate 3-fold greater kcat is observed for the preferred versus non-preferred substrate, in the absence of inositol phosphate. […] The net effect of both inositol phosphates tested was between a two and fivefold increase in catalytic efficiency (kcat/Km) (Fig. 4c,d, Supplementary Fig. 7).
(§5) Michaelis–Menten kinetics were determined using a HDAC assay on the Caliper EZ Reader II system (Caliper Life Sciences, http://www.caliperls.com). To assess the effect of inositol phosphate, 20 nM HDAC3:SMRT or 80 nM HDAC1:MTA1 were pre-mixed with InsP6 before dilution and addition of fluorescein-labelled H4K16Ac substrate. Reactions were carried out in duplicate in 30 μl reaction volumes, performed at room temperature in 50 mM Tris pH 7.5, 50 mM NaCl, 5% glycerol. Data was analysed using GraphPad Prism (version 6.0).

HDAC3:SMRT [6] = molecular target: T3, HDAC3:SMRT; assay: as above; format: biochemical; parameters: Full-length HDAC3, and residues 350–480 of SMRT were cloned into pcDNA3 vectors; residues 350–480 of SMRT were cloned into pcDNA3 vectors; FLAG tag with TEV protease cleavage site (cleaved yes); made in house; host or cells: HEK293F cells (co-transfection, pcDNA3); details: H4 12–18K16ac peptide; in the presence of the inositol phosphate
Description: as §4, §5

HDAC3:SMRT [7] = molecular target: T3, HDAC3:SMRT; assay: Fluorescence anisotropy displacement of 2-FAM-Ins(1,3,4,5,6)P5; format: binding; parameters: Full-length HDAC3, and residues 350–480 of SMRT were cloned into pcDNA3 vectors; residues 350–480 of SMRT were cloned into pcDNA3 vectors; FLAG tag with TEV protease cleavage site (cleaved yes); made in house; host or cells: HEK293F cells (co-transfection, pcDNA3); details: read-out: IC50 displacement of 2-FAM-Ins(1,3,4,5,6)P5; fluorescence anisotropy competition
Method: The concentration of protein was determined as that which gave 100% bound in the protein titration experiments. The data were analysed and IC50 values calculated using GraphPad Prism (version 6.0).

T1 sequence (O15379 whole entry, the tested form may be a part): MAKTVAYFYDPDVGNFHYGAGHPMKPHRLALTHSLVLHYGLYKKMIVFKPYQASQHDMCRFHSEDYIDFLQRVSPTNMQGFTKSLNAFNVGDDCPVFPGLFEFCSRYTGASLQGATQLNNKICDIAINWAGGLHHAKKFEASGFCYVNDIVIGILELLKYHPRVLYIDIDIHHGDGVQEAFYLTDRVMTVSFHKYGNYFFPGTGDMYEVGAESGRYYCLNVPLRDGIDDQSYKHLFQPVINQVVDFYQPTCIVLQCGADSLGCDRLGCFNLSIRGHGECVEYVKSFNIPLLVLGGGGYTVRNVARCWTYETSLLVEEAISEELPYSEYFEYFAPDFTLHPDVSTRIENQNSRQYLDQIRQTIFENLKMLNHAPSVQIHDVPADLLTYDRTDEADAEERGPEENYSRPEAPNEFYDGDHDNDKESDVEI
T1 sequence (Q9Y618 350-480): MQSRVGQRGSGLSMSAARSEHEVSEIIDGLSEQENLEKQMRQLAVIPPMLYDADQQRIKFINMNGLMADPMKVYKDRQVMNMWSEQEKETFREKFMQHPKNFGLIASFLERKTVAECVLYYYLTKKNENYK
T3 sequence (O15379 whole entry): as the sequence (O15379 whole entry, the tested form may be a part) above
T3 sequence (Q9Y618 350-480): as the sequence (Q9Y618 350-480) above
T2 sequence (Q13547 whole entry, the tested form may be a part): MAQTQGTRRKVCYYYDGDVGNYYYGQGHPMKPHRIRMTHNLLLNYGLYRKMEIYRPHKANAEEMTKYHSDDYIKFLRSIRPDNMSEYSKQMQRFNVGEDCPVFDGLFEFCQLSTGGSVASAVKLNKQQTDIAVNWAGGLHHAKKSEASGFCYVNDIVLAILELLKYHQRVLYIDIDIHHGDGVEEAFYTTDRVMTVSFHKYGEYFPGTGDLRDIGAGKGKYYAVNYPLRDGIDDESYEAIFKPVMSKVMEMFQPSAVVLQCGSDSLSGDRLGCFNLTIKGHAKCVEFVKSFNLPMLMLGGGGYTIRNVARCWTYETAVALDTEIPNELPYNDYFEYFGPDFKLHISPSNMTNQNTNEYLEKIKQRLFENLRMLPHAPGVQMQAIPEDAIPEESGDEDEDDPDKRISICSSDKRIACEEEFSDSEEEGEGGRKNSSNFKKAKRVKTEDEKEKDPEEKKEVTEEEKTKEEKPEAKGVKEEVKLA
T2 sequence (Q13330 162-354): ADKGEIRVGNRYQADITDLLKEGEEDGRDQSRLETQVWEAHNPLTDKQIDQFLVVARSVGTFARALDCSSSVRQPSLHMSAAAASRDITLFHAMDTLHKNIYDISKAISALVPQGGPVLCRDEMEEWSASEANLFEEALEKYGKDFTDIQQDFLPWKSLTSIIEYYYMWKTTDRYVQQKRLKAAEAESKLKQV
T5 sequence (Q13547 whole entry, the tested form may be a part): as the sequence (Q13547 whole entry, the tested form may be a part) above
T5 sequence (Q13330 162-354): as the sequence (Q13330 162-354) above
T4 sequence (O15379 whole entry, the tested form may be a part): as the sequence (O15379 whole entry, the tested form may be a part) above
T4 sequence (Q9Y618 350-480, further chain): as the sequence (Q9Y618 350-480) above

Question: `O=P(O)(O)O[C@@H]1[C@@H](OP(=O)(O)OP(=O)(O)O)[C@H](OP(=O)(O)O)[C@@H](OP(=O)(O)O)[C@@H](O)[C@H]1OP(=O)(O)O` [5-PP-InsP4] was tested. Which “HDAC activity as percentage of maximal Ins(1,4,5,6)P4 activity” value (HDAC3:SMRT complex [1]) did it give?
Answer: Its value is roughly 60%.

Question: Which Kd (HDAC3:SMRT complex [1]; BOC-Lys-AMC assay, one-site binding fit of HDAC activity vs inositol phosphate concentration, read-out: Kdapp (apparent Kd from activation titration)) does the source give for `O=P(O)(O)OC1C(O)C(OP(=O)(O)O)C(OP(=O)(O)O)C(OP(=O)(O)O)C1O` (stereo not drawn) [Ins(1,3,5,6)P4] here?
Answer: Its Kd is 30 µM.

Question: `O=P(O)(O)Oc1ccc(OP(=O)(O)O)c(OP(=O)(O)O)c1OP(=O)(O)O` [benzene 1,2,3,4-tetrakisphosphate] was tested. Which “HDAC activity as percentage of maximal Ins(1,4,5,6)P4 activity” value (HDAC3:SMRT complex [1]) did it give?
Answer: Its value is “fails to substantially activate the complex”.

Question: What does the source list for `CC(=O)N[C@@H](CCCCN)C(=O)NCC(=O)NCC(=O)N[C@@H](C)C(=O)N[C@@H](CCCCCC(=O)NO)C(=O)N[C@@H](CCCNC(=N)N)C(=O)N[C@@H](Cc1c[nH]cn1)C(N)=O` [H4K16Hx] (Ac-KGGA[Asu](NHOH)RH-NH2)?
Answer: IC50 (HDAC1:MTA1 [2]): 336 nM; enhancement of the binding of 2-FAM-Ins(1,3,4,5,6)P5 to the allosteric site by inhibitor (HDAC3:SMRT [3]): more modest effect

Question: What does the source list for `O=P(O)(O)O[C@@H]1[C@@H](OP(=O)(O)O)[C@H](OP(=O)(O)O)[C@@H](O)[C@@H](O)[C@H]1OP(=O)(O)O` [Ins(1,4,5,6)P4, inositol 1,4,5,6-tetrakisphosphate]?
Answer: Kd (HDAC3:SMRT complex [4]): 10 µM; Kd (HDAC1:MTA1 complex): 4.7 µM; kcat (HDAC1:MTA1 [5]): 0.90 s⁻¹; kcat (HDAC3:SMRT [6]): 2.72 s⁻¹

Question: Which “HDAC3 activation relative to maximal Ins(1,4,5,6)P4-stimulated activity” value (HDAC3:SMRT complex [1]; BOC-Lys-AMC assay) does the source give for `O=P(O)(O)O[C@H]1[C@H](O)[C@H](O)[C@H](OP(=O)(O)O)[C@@H](OP(=O)(O)O)[C@@H]1O` [Ins(1,4,6)P3] here?
Answer: The value was “completely inert”.

Question: For MS-275, which “enhancement of the binding of 2-FAM-Ins(1,3,4,5,6)P5 to the allosteric site by inhibitor” value (HDAC3:SMRT [3]) is on record?
Answer: The value was “threefold enhancement”.

Question: `O=P(O)(O)O[C@@H]1C(O)[C@H](OP(=O)(O)O)[C@@H](OP(=O)(O)O)C(O)[C@H]1OP(=O)(O)O` (stereo partly drawn) [Ins(1,3,4,6)P4] was tested. Which “HDAC3 activation relative to maximal Ins(1,4,5,6)P4-stimulated activity” value (HDAC3:SMRT complex [1]; BOC-Lys-AMC assay) did it give?
Answer: The value was “unable to activate HDAC3; also recorded: do not activate the complex”.

Question: And the IC50 (HDAC3:SMRT [7])?
Answer: Its IC50 is 1.5 µM.

Question: Which results are given for `O=P(O)(O)O[C@@H]1[C@H](O)[C@H](O)[C@@H](OP(=O)(O)O)[C@H](OP(=O)(O)O)[C@H]1O` [Ins(1,4,5)P3]?
Answer: HDAC3 activation relative to maximal Ins(1,4,5,6)P4-stimulated activity (HDAC3:SMRT complex [1]; BOC-Lys-AMC assay): completely unable to activate HDAC3; also recorded: completely inert; also recorded: do not activate the complex; IC50 (HDAC3:SMRT [7]): 19 µM
